Literature values as cited in patent US11235084B2, “Embolic microspheres” (Varian Medical Systems, Inc., priority 2017, dated 2022).

reported pKa values at 25° C.	SMILES
7.8	CCN1CCOCC1 [N-ethylmorpholine]
8.3	NCC(=O)NCC(=O)O [glycylglycine]

The remaining lines, values behind:

SMILES	reported pKa values at 25° C.
O=S(=O)(O)CCCNC1CCCCC1 [CAPS, 3-(cyclohexylamino)-1-propanesulfonic acid]	10.5
CC(C)(CO)NCC(O)CS(=O)(=O)O (centres unmarked) [AMPSO, N-(1,1-dimethyl-2-hydroxyethyl)-3-amino-2-hydroxypropanesulfonic acid]	9.1
O=S(=O)(O)CCNC1CCCCC1 [CHES, 2-(cyclohexylamino)-1-ethanesulfonic acid]	9.4
